According to publication PMC5271319, “Identification and Characterization of a 25 kDa Protein That Is Indispensable for the Efficient Saccharification of Eisenia bicyclis in the Digestive Fluid of Aplysia kurodai” (PLoS ONE, 2017):

Molecular target: T1, EHEP (Eisenia hydrolysis enhancing protein, 25 kDa) (Aplysia kurodai, UniProt A0A1B4XTR1)
T1 construct: native protein purified from digestive fluid; signal peptide 1-16 predicted to be removed; 25 kDa monomer
T1 sequence (A0A1B4XTR1 17-229): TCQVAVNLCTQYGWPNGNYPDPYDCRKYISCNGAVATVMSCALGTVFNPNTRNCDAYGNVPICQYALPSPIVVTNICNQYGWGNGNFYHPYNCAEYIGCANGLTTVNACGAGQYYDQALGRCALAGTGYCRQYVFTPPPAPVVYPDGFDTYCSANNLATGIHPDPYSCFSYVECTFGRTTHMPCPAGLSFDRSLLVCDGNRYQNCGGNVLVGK
Test: co-precipitation, SDS-PAGE of precipitate
Type: binding
Conditions: 50 and 100 μg in 0.1 ml; 50 mM acetate pH 5.5, 0.1 M NaCl, 10 mM CaCl2; 25 °C, 90 min

`O=C(O)c1cc(O)c(O)c(O)c1` [gallic acid] was tested, and the “co-precipitation, SDS-PAGE of precipitate” value was “EHEP was precipitated by phloroglucinol and gallic acid”.

With `Oc1cc(O)cc(O)c1` [phloroglucinol, 1,3,5-trihydroxybenzene] the “co-precipitation, SDS-PAGE of precipitate” value was “EHEP was precipitated by phloroglucinol and gallic acid”.
